Data published in ChEMBL document CHEMBL5230110, “FabI (enoyl acyl carrier protein reductase) - A potential broad spectrum therapeutic target and its inhibitors” (Eur J Med Chem, 2020).

Target: Enoyl-[acyl-carrier-protein] reductase [NADH] (Mycobacterium tuberculosis, UniProt P9WGR1, S94A)

Q: Which IC50 does the source give for `Oc1cc2ccc1Oc1ccc(cc1)CCc1ccc(c(O)c1)Oc1ccc(cc1)CC2` here?
A: Its IC50 is 4.7 µM.
